Source: ChEMBL document CHEMBL4834472 (J Med Chem, 2021)
Calls of active or inactive are those of the source. No cut-off for these calls is given here.

Experiments:
[1] = molecular target: T1, Receptor-type tyrosine-protein kinase FLT3 (Homo sapiens, UniProt P36888, ITD)
[2] = molecular target: Cyclin-dependent kinase 1/cyclin B1 (Homo sapiens, UniProt P06493); experiment: Inhibition of CDK1/cyclin B1 (unknown origin) in presence of [32P]gammaATP by image analyser; format: protein-complex assay
Cyclin-dependent kinase 1/cyclin B1, sequence (P06493 whole entry): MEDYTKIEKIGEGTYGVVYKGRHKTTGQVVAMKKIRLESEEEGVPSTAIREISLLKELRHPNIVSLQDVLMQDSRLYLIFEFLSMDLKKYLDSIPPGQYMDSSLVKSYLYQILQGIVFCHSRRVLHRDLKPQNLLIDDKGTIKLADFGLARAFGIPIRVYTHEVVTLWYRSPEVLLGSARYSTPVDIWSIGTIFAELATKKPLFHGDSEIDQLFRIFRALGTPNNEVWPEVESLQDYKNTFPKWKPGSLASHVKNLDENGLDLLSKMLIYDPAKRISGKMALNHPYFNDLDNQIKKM
Cyclin-dependent kinase 1/cyclin B1, sequence (P14635 whole entry, further chain): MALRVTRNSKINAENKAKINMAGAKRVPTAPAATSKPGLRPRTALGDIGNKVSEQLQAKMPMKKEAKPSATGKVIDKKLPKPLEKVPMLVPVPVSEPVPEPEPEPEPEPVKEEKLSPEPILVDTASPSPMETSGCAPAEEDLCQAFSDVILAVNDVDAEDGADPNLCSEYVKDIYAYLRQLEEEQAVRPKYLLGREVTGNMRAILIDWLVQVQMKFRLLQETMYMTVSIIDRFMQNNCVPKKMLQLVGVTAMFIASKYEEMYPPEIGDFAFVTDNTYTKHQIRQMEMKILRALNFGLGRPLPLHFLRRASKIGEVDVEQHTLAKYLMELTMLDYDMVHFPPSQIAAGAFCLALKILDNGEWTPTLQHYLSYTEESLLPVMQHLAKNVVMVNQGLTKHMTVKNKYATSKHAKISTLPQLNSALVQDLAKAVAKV

CDK9/cyclin T1 = CDK9/cyclin T1 (Homo sapiens, UniProt P50750); experiment: Inhibition of CDK9/cyclin T1 (unknown origin) in presence of [32P]gammaATP by image analyser; format: protein-complex assay
[3] = molecular target: T2, Receptor-type tyrosine-protein kinase FLT3 (Homo sapiens, UniProt P36888); experiment: Inhibition of wild type FLT3 (unknown origin) using AGLT peptide substrate in presence of [32P]gammaATP by image analyser
T2 sequence (P36888 whole entry): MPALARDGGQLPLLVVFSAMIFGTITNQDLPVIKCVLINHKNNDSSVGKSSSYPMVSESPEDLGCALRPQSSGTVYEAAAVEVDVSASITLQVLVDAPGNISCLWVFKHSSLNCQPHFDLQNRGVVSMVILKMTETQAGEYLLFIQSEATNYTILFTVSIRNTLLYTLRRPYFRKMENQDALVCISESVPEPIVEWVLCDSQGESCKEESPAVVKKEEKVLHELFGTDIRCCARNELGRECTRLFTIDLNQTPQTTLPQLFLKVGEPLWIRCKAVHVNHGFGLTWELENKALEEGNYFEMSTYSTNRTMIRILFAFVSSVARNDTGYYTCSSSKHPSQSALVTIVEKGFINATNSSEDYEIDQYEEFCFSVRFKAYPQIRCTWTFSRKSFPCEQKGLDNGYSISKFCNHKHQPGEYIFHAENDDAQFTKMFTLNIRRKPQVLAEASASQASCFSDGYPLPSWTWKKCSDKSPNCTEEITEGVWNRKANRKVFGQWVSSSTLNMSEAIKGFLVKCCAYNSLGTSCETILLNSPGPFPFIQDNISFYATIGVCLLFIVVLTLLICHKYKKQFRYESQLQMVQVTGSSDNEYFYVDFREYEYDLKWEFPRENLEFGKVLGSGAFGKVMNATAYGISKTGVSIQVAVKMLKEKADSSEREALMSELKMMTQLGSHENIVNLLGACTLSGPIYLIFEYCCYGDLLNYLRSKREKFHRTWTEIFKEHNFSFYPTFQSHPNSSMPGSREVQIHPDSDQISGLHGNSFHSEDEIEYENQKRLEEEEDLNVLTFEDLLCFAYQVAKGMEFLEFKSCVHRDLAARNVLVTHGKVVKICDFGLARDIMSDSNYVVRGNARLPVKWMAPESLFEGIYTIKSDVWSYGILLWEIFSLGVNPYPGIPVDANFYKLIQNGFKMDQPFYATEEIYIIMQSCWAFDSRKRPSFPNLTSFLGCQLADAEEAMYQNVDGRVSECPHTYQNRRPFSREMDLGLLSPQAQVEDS

MOLM-13 = experiment: Antiproliferative activity against human MOLM-13 cells assessed as cell death measured after 72 hrs by resazurin dye based assay; format: functional; conditions: MOLM-13, 72 h
MOLM-14 [4] = experiment: Antiproliferative activity against human MOLM-14 cells assessed as cell death measured after 72 hrs by resazurin dye based assay; format: functional; conditions: MOLM-14, 72 h
MOLM-14 [5] = experiment: Antiproliferative activity against human MOLM-14 cells harboring D835Y mutant assessed as cell death measured after 72 hrs by resazurin dye based assay; format: functional; conditions: MOLM-14, 72 h
MOLM-14 [6] = experiment: Antiproliferative activity against human MOLM-14 cells harboring F691L mutant assessed as cell death measured after 72 hrs by resazurin dye based assay; format: functional; conditions: MOLM-14, 72 h
SEM cells = experiment: Antiproliferative activity against human SEM cells assessed as cell death measured after 72 hrs by resazurin dye based assay; format: functional
U-937 = experiment: Antiproliferative activity against human U-937 cells assessed as cell death measured after 72 hrs by resazurin dye based assay; format: functional; conditions: U-937, 72 h
BaF3 [7] = experiment: Antiproliferative activity against mouse BaF3 cells assessed as cell death measured after 72 hrs by resazurin dye based assay; format: functional; conditions: BaF3, 72 h
BaF3 [8] = experiment: Antiproliferative activity against mouse BaF3 cells harboring FLt3 ITD mutant assessed as cell death measured after 72 hrs by resazurin dye based assay; format: functional; conditions: BaF3, 72 h
[9] = molecular target: Leucine-rich repeat serine/threonine-protein kinase 2 (Homo sapiens) (UniProt Q5S007); experiment: Inhibition of LRRK2 (unknown origin) assessed as residual activity at 500 nM
Leucine-rich repeat serine/threonine-protein kinase 2 (Homo sapiens), sequence (Q5S007 whole entry): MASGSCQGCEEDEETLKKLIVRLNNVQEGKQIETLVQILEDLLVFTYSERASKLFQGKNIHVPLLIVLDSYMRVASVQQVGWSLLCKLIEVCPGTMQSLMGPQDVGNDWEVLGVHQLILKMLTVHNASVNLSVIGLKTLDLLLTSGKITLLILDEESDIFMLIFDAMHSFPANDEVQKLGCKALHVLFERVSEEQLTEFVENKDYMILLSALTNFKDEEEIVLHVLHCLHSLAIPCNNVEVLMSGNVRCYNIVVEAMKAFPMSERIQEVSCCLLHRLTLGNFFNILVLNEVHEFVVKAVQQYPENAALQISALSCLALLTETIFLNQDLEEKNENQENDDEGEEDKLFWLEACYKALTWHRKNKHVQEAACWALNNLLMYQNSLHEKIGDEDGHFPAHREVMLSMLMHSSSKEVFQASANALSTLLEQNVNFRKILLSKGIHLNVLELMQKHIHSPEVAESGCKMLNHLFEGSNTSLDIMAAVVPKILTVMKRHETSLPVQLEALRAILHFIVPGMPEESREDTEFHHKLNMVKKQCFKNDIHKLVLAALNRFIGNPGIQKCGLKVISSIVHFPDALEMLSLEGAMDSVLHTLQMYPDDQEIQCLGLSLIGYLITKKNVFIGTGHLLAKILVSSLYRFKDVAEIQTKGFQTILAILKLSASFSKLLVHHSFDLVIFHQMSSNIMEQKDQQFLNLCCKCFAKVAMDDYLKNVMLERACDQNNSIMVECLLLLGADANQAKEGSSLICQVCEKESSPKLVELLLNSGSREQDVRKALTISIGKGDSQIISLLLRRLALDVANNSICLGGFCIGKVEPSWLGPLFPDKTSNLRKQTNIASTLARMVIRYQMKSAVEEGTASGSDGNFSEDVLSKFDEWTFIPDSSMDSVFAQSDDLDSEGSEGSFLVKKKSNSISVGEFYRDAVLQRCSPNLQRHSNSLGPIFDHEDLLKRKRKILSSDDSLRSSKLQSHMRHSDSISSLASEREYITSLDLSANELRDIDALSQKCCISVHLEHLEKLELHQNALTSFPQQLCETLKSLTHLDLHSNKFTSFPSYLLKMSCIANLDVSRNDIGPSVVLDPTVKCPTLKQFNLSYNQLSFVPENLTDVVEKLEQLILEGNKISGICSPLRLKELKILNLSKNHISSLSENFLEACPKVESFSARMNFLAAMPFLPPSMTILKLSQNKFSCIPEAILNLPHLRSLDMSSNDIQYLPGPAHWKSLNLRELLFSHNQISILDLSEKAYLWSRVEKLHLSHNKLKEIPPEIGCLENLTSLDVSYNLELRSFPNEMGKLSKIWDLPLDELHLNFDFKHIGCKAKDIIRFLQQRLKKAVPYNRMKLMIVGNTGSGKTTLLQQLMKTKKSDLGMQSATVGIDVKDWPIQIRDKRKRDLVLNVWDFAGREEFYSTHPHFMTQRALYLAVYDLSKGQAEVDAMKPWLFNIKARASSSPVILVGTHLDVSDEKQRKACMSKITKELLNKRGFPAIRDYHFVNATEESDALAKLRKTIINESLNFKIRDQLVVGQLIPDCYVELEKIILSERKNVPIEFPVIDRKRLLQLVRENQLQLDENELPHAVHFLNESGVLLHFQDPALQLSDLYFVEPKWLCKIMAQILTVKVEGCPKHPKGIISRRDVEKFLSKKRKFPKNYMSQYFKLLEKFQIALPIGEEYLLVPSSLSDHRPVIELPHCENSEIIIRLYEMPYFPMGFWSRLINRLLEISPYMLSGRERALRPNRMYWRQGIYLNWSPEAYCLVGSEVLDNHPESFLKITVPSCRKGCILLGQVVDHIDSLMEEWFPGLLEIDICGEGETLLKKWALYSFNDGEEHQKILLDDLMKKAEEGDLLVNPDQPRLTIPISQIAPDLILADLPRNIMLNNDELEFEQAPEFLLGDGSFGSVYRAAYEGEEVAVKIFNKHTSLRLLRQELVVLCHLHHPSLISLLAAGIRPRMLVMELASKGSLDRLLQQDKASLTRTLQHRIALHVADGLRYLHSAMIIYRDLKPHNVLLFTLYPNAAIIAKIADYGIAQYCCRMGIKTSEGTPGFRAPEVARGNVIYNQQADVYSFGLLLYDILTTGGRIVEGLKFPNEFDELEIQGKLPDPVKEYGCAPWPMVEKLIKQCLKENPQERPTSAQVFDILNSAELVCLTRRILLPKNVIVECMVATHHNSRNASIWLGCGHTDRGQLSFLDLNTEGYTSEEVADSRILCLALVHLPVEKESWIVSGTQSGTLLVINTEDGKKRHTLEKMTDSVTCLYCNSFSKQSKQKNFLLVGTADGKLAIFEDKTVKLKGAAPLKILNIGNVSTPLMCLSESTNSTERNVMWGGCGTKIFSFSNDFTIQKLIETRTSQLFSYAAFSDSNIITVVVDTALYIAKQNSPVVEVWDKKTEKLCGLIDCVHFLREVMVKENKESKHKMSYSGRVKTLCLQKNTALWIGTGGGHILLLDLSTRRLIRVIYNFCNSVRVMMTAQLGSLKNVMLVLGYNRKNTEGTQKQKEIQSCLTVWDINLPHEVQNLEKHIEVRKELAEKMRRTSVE

[10] = molecular target: Maternal embryonic leucine zipper kinase (Homo sapiens) (UniProt Q14680); experiment: Inhibition of MELK (unknown origin) assessed as residual activity at 500 nM
Maternal embryonic leucine zipper kinase (Homo sapiens), sequence (Q14680 whole entry, looked up): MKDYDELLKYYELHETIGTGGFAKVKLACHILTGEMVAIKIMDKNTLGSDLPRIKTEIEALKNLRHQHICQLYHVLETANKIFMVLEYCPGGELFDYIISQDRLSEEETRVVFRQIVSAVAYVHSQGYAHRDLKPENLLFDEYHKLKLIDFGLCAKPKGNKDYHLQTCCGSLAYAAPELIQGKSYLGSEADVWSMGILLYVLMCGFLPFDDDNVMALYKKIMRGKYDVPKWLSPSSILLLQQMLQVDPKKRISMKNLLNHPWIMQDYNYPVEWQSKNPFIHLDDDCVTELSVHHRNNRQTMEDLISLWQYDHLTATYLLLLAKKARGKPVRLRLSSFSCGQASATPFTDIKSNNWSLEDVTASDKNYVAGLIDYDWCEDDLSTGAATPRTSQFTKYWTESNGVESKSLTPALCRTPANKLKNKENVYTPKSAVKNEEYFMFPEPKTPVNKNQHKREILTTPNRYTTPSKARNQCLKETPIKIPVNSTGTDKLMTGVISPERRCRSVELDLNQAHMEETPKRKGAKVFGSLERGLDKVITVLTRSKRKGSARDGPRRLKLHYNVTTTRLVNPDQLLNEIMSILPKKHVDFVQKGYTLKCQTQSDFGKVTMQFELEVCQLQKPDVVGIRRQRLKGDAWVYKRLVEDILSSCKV

[11] = molecular target: Dual specificity tyrosine-phosphorylation-regulated kinase 1B (Homo sapiens) (UniProt Q9Y463); experiment: Inhibition of DYRK1B (unknown origin) assessed as residual activity at 500 nM
Dual specificity tyrosine-phosphorylation-regulated kinase 1B (Homo sapiens), sequence (Q9Y463 whole entry, looked up): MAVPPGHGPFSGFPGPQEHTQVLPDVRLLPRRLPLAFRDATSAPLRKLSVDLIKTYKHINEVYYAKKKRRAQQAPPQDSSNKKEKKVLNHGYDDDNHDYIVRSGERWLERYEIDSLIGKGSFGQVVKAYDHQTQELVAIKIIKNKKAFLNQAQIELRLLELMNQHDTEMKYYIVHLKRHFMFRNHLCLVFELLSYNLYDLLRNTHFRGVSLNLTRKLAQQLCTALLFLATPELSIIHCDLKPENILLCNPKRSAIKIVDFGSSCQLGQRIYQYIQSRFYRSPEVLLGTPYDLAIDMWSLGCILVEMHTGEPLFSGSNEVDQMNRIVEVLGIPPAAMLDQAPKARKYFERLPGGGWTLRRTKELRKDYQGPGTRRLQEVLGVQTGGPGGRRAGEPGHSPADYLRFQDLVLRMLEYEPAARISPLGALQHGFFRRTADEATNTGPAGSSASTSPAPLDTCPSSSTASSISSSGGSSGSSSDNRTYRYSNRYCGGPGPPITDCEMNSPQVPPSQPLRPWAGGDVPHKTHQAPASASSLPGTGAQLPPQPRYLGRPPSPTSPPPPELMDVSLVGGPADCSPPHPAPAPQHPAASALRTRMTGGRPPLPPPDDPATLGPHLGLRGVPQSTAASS

[12] = molecular target: Dual specificity protein kinase CLK1 (Homo sapiens) (UniProt P49759); experiment: Inhibition of CLK1 (unknown origin) assessed as residual activity at 500 nM
Dual specificity protein kinase CLK1 (Homo sapiens), sequence (P49759 whole entry, looked up): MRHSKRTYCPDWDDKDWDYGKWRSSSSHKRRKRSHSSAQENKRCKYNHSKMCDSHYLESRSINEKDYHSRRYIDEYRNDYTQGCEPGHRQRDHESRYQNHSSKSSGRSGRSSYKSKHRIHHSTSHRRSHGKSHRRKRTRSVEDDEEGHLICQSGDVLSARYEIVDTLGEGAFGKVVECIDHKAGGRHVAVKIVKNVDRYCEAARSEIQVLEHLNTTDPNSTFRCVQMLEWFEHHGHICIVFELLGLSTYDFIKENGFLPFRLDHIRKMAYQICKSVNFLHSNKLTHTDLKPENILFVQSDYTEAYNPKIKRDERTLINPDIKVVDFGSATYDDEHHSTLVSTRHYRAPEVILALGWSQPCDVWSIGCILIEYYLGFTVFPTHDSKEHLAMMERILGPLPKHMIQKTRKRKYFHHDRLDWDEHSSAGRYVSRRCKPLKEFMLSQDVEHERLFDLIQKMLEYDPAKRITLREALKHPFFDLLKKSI

[13] = molecular target: NT-3 growth factor receptor (Homo sapiens) (UniProt Q16288); experiment: Inhibition of TRKC (unknown origin) assessed as residual activity at 500 nM
[14] = molecular target: T1, Receptor-type tyrosine-protein kinase FLT3; experiment: Binding affinity to human partial length FLT3 ITD mutant expressed in bacterial expression system by KdELECT Discover assay
[15] = molecular target: Receptor-type tyrosine-protein kinase FLT3 (Homo sapiens, UniProt P36888, D835V); experiment: Binding affinity to human partial length FLT3 ITD D835V mutant expressed in mammalian expression system by KdELECT Discover assay
[16] = molecular target: Receptor-type tyrosine-protein kinase FLT3 (Homo sapiens, UniProt P36888, F691L); experiment: Binding affinity to human partial length FLT3 ITD F691L mutant expressed in mammalian expression system by KdELECT Discover assay
[17] = molecular target: Receptor-type tyrosine-protein kinase FLT3 (Homo sapiens) (UniProt P36888); experiment: Inhibition of FLT3 autophosphorylation in human MV4-11 cells at 20 to 100 nM incubated for 1 hrs by Western blot analysis; format: cell-based; conditions: dose 20-100 nM
[18] = molecular target: Receptor-type tyrosine-protein kinase FLT3 (Homo sapiens) (UniProt P36888); experiment: Inhibition of FLT3 in human MV4-11 cells assessed as STAT5 phosphorylation at Y694 at 20 to 100 nM incubated for 1 hrs by Western blot analysis; format: cell-based; conditions: dose 20-100 nM
[19] = molecular target: Receptor-type tyrosine-protein kinase FLT3 (Homo sapiens) (UniProt P36888); experiment: Inhibition of FLT3 in human MV4-11 cells assessed as ERK1/2 phosphorylation at 20 to 100 nM incubated for 1 hrs by Western blot analysis; format: cell-based; conditions: dose 20-100 nM
MV4-11 [20] = experiment: Induction of apoptosis in human MV4-11 cells assessed as increase in cleaved PARP1 level at 100 nM incubated for 24 hrs by Western blot analysis; format: functional, cell-based
MV4-11 [21] = experiment: Induction of apoptosis in human MV4-11 cells assessed as effect on Bcl2 level at 100 nM incubated for 24 hrs by Western blot analysis; format: functional, cell-based
K562 = experiment: cells; conditions: Homo sapiens, K562, 72 h
Description: Antiproliferative activity against human K562 cells assessed as cell death measured after 72 hrs by resazurin dye based assay

MV4-11 [22] = experiment: cells; conditions: Homo sapiens, MV4-11, 72 h
Description: Antiproliferative activity against human MV4-11 cells assessed as cell death measured after 72 hrs by resazurin dye based assay

Cc1n[nH]c2ccc3nc(-c4c[nH]nc4C(F)(F)F)c4c(c3c12)CCCC4
IC50 [1]: 0.006 µM | IC50 [2]: 0.157 µM | IC50 (CDK9/cyclin T1): > 1 µM | IC50 [3]: 0.025 µM | IC50 (MOLM-13): 0.068 µM | IC50 (MOLM-14 [4]): 0.026 µM | IC50 (MOLM-14 [5]): 0.036 µM | IC50 (MOLM-14 [6]): 0.053 µM | IC50 (SEM cells): 0.422 µM | IC50 (U-937): 2.88 µM | IC50 (BaF3 [7]): 153 µM | IC50 (BaF3 [8]): 0.062 µM | Activity [9]: 4% | Activity [10]: 4% | Activity [11]: 4% | Activity [12]: 4% | Activity [13]: 4% | Kd [14]: 0.0016 µM | Kd [15]: 0.00073 µM | Kd [16]: 0.0013 µM | inhibition [17]: Active | inhibition [18]: Active | inhibition [19]: inactive | Activity (MV4-11 [20]): Active | Activity (MV4-11 [21]): Active | IC50 (K562): 9.82 µM | IC50 (MV4-11 [22]): 0.07 µM
